Assay results from patent US20140364405A1, “TREATMENT OF SEBORRHOEA” (McFarlane Marketing (Aust.)Pty. Ltd., priority 2011, published 2014).

Tests used:
[1] = test system: skin sebum (skin surface lipids); test: Pilot clinical study: sebum reduction measured with Sebumeter SM810PC; format: in vivo, humans; conditions: for sebum reduction: one side of face, after 28 days
Experimental: (§1) In an initial pilot study in humans, 3 topical formulations were evaluated for effectiveness in reduction of sebum or treatment of acne.
(§2) The active substance in each of these formulations was: • Formulation 1—natural isolutrol (sodium 24R—scymnol sulphate). • Formulation 2—synthetic (24R)—scymnol. • Formulation 3—synthetic racemic (24RS)—scymnol.
(§3) In each formulation, the active substance was incorporated at 0.015% w/w into an oil-free topical lotion. In the pilot study, each test formulation was applied to one side of the face of a test subject, twice daily, for 28 days in the case of Formulations 1 and 2, and for 42 days in the case of Formulation 3. For each test formulation, 10 healthy female test subjects participated in the pilot study.
For the evaluation of sebum reduction, a Sebumeter SM810PC (Courage+Khazaka electronic GmbH) was used to obtain measurement of skin sebum (skin surface lipids) on days 0, 3, 7, 14, 21, 28, 35 and 42. To accomplish this, a special purpose film of the cartridge measuring head was applied for 30 seconds to the relevant skin area. The cartridge was inserted into the Sebumeter SM810 PC for electronic determination of film transparency variations. The LC-display of the instrument presents the result in terms of μg/cm^2. Duplicated measurements were obtained on the same site at each visit, and the results were averaged.

[2] = test system: seborrhoea; conditions: particularly when used topically; cited from earlier work
[3] = test system: total acne lesion (pustules, papules and comedones) counts; test: Pilot clinical study: anti-acne treatment, total acne lesion counts; format: in vivo, humans; conditions: 0.015% w/w in oil-free topical lotion, twice daily, over the 42 day test period
Experimental: as §1, §2, §3
For evaluation of anti-acne treatment, reduction in total acne lesion (pustules, papules and comedones) counts was measured.

[4] = test system: liver dysfunction; conditions: in vivo; cited from earlier work
[5] = 0.015% w/w in oil-free topical lotion, twice daily

For `C[C@H](CC[C@@H](O)C(CO)CO)[C@H]1CC[C@H]2[C@@H]3[C@H](O)C[C@@H]4C[C@H](O)CC[C@]4(C)[C@H]3C[C@H](O)[C@]12C` [(24S)-scymnol], the “effect of presence of the non-natural enantiomer in the racemate on the sebum study” value ([1]; as component of racemic (24RS)-scymnol of Formulation 3) was “no adverse effect in the sebum study”.

In the case of `CC(CC[C@@H](O)C(CO)COS(=O)(=O)[O-])C1CCC2C3C(O)C[C@@H]4CC(O)CCC4(C)C3CC(O)C12C.[Na+]` (stereo partly drawn) [sodium 24R-scymnol sulphate, 24(+)-3α, 7α,12α,24,26-pentahydroxy-coprostane-27-sodium sulphate ester], the treatment of seborrhoea [2] is given as “effective in the treatment of seborrhoea”.

With “racemic (24RS,25RS) sodium scymnol sulphate [racemic (24RS)-scymnol]” the “reduction of total acne lesion counts” value [3] was “effective in reduction of total acne lesion counts”, the sebum reduction [1, 5] was “at least as effective in sebum reduction as the active substances of Formulations 1 and 2” and the “sebum reduction when test period extended” value ([1]; 0.015% w/w in oil-free topical lotion, twice daily, test period extended to 42 days) was “sebum reduction continued”.

For `C[C@H](CC[C@@H](O)C(CO)CO)[C@H]1CC[C@H]2[C@@H]3[C@H](O)C[C@@H]4C[C@H](O)CC[C@]4(C)[C@H]3C[C@H](O)[C@]12C` [(24R)-scymnol, 24R-(+)-5β-cholestane-3α,7α,12α,24,26,27-hexol], the sebum reduction [1, 5] is given as “at least as effective in sebum reduction as the active substance of Formulation 1” and the “treatment of liver dysfunction” value [4] is given as “activity in the treatment of liver dysfunction”.
